# Results published in patent publication US12116698B1, “Protein surface recognition via chemically enhanced phage display” (The Trustees of Boston College, priority 2019, dated 2024).
# Entries after “also recorded” stand apart in the source; their conditions may differ. Where a SMILES comes first, the peptide text is derived from it. Where no end group is shown, it is not given here. [ ]: non-standard residue; d: D form. The star is where a group is joined. APBA = (2-acetyl-5-(3-(2-iodoacetamido)propoxy)phenyl)boronic acid, Cys modified with it (Cm in name), CC(=O)c1ccc(OCCCNC(=O)C*)cc1B(O)O; X1 = CC(=O)c1ccc(OCCCNC(=O)C*)cc1B(O)O; Dap = NC[C@H](N)C(=O)O; Cam = NC(=O)C*
# Columns and labels:
# streptavidin = streptavidin (Streptomyces avidinii, UniProt P22629); type: binding; settings: for fluorescence brightness of streptavidin beads on addition of BSA: BSA 1 mg/mL; for fluorescence staining of streptavidin beads after surface lysine acetylation: beads treated with Ac-NHS, 3 mM; for fluorescence staining of streptavidin-coated beads: excess biotin present; for effect of biotin on fluorescence staining of streptavidin-coated beads: with and without biotin; for staining of streptavidin-coated beads by SrtA screen peptides: even at 25 μm; for staining of streptavidin beads without SrtA coating: streptavidin beads alone, no SrtA
# sortase A (SrtA) [1] = target: T1, sortase A (SrtA) (Staphylococcus aureus, UniProt Q2FV99); type: binding, S. aureus; settings: for staining of SrtA-coated beads in the presence of BSA: 10 mg/mL BSA; for fluorescence staining of SrtA-coated beads: peptide at 25 μM
# sortase A (SrtA) [2] = target: T1, sortase A (SrtA); settings: competition with DMMA
# From the text: To probe the peptides' binding site on SrtA, a competition experiment was designed using a known small molecule inhibitor of SrtA, DMMA (FIG. 8E).
# Sequence of streptavidin (P22629 37-163 limits assumed): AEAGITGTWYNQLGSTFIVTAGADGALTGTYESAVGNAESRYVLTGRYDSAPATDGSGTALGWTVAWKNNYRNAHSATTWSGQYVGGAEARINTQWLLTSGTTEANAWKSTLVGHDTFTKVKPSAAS
# T1 sequence (Q2FV99 whole entry): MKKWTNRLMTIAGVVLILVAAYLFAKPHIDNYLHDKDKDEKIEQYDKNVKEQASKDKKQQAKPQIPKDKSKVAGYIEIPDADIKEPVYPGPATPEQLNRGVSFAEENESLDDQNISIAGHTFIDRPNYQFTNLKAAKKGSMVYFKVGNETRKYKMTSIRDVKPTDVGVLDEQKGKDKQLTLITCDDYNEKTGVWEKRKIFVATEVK
Compound,fluorescence brightness of streptavidin beads on addition of BSA (streptavidin),fluorescence staining of streptavidin beads after surface lysine acetylation (streptavidin),fluorescence staining of streptavidin-coated beads (streptavidin),effect of biotin on fluorescence staining of streptavidin-coated beads (streptavidin),staining of streptavidin-coated beads by SrtA screen peptides (streptavidin),staining of streptavidin beads without SrtA coating (streptavidin),staining of SrtA-coated beads in the presence of BSA (sortase A (SrtA) [1]),fluorescence staining of SrtA-coated beads (sortase A (SrtA) [1]),effect of DMMA addition on SrtA binding (sortase A (SrtA) [2])
"CC(=O)c1ccc(OCCCNC(=O)CSC[C@H](NC(=O)[C@H](C)N)C(=O)N[C@@H](CC(=O)O)C(=O)NCC(=O)N[C@@H](CCCNC(=N)N)C(=O)N2CCC[C@H]2C(=O)N[C@@H](CC(=O)O)C(=O)N[C@@H](CCCNC(=N)N)C(=O)N[C@@H](C)C(=O)N[C@@H](CSCC(=O)NCCCOc2ccc(C(C)=O)c(B(O)O)c2)C(=O)NCC(=O)NCC(=O)NCC(=O)N[C@@H](CN)C(N)=O)cc1B(O)O [SA2, ACmDGRPDRACmGGGDap] (H-AC(X1)DGRPDRAC(X1)GGG[Dap]-NH2; N-terminus and C-terminus assumed)",minimally affected,greatly reduced the fluorescence staining,fluorescence staining of the beads at low micromolar concentrations,marginal differences in fluorescence intensity with and without biotin,,,,,
"CC(=O)c1ccc(OCCCNC(=O)CSC[C@H](NC(=O)[C@H](C)N)C(=O)N[C@@H](CC(C)C)C(=O)N[C@@H](CC(N)=O)C(=O)N[C@@H](CO)C(=O)N[C@@H](CO)C(=O)N[C@@H](CCC(N)=O)C(=O)N2CCC[C@H]2C(=O)N[C@@H](CO)C(=O)N[C@@H](CSCC(=O)NCCCOc2ccc(C(C)=O)c(B(O)O)c2)C(=O)NCC(=O)NCC(=O)NCC(=O)N[C@@H](CN)C(N)=O)cc1B(O)O [W2, ACmLNSSQPSCmGGGDap] (H-AC(X1)LNSSQPSC(X1)GGG[Dap]-NH2; N-terminus and C-terminus assumed)",,,,,fail to stain streptavidin-coated beads,little binding to the agarose beads,effective binding; also recorded: stain the SrtA coated beads,strong fluorescence staining of the SrtA-coated beads,binds the SrtA surface instead of the catalytic site; also recorded: no inhibition of the SrtA binding
"AcmTPRSANYCmGGGDap (AC(Cam)TPRSANYC(APBA)GGG[Dap]; not fully specified (residue 14); also: fluorescent label on Dap, identity not given here) [SA1-IA, reference compound]",,,failed to stain the streptavidin beads,,,,,,
"ACmTPNKTPKCmGGGDap (AC(APBA)TPNKTPKC(APBA)GGG[Dap]; not fully specified (residue 14); also: APBA dimer modification, fluorescent label on Dap14) [W4]",,,,,fail to stain streptavidin-coated beads,no fluorescence staining of the streptavidin beads alone,,weak fluorescence staining of SrtA-coated beads; also recorded: much lower fluorescence staining of the beads,
"ACmIQKNTTTCmGGGDap (AC(APBA)IQKNTTTC(APBA)GGG[Dap]; not fully specified (residue 14); also: APBA dimer modification, fluorescent label on Dap14) [W3]",,,,,fail to stain streptavidin-coated beads,no fluorescence staining of the streptavidin beads alone,,weak fluorescence staining of SrtA-coated beads; also recorded: much lower fluorescence staining of the beads,
"CC(=O)c1ccc(OCCCNC(=O)CSC[C@H](NC(=O)[C@H](C)N)C(=O)N[C@H](C(=O)N2CCC[C@H]2C(=O)N[C@@H](CCCNC(=N)N)C(=O)N[C@@H](CO)C(=O)N[C@@H](C)C(=O)N[C@@H](CC(N)=O)C(=O)N[C@@H](Cc2ccc(O)cc2)C(=O)N[C@@H](CSCC(=O)NCCCOc2ccc(C(C)=O)c(B(O)O)c2)C(=O)NCC(=O)NCC(=O)NCC(=O)N[C@@H](CN)C(N)=O)[C@@H](C)O)cc1B(O)O [SA1, ACmTPRSANYCmGGGDap] (H-AC(X1)TPRSANYC(X1)GGG[Dap]-NH2; N-terminus and C-terminus assumed)",minimally affected,completely abolished the fluorescence staining,fluorescence staining of the beads at low micromolar concentrations,marginal differences in fluorescence intensity with and without biotin,,,,,
"AcmDGRPDRACmGGGDap (AC(Cam)DGRPDRAC(APBA)GGG[Dap]; not fully specified (residue 14); also: fluorescent label on Dap, identity not given here) [SA2-IA, reference compound]",,,failed to stain the streptavidin beads,,,,,,
"CC(=O)c1ccc(OCCCNC(=O)CSC[C@H](NC(=O)[C@H](C)N)C(=O)N[C@@H](Cc2c[nH]cn2)C(=O)N2CCC[C@H]2C(=O)N[C@H](C(=O)N[C@@H](CO)C(=O)NCC(=O)N[C@@H](CCC(N)=O)C(=O)N[C@@H](CCCCN)C(=O)N[C@@H](CSCC(=O)NCCCOc2ccc(C(C)=O)c(B(O)O)c2)C(=O)NCC(=O)NCC(=O)NCC(=O)N[C@@H](CN)C(N)=O)C(C)C)cc1B(O)O [W1, ACmHPVSGQKCmGGGDap] (H-AC(X1)HPVSGQKC(X1)GGG[Dap]-NH2)",,,,,fail to stain streptavidin-coated beads,little binding to the agarose beads,greater inhibition was observed,strong fluorescence staining of the SrtA-coated beads,no inhibition of the SrtA binding
